# Source: patent publication US9403806B1, “Cognition enhancing compounds and compositions, methods of making, and methods of treating” (NeuroSolis, Inc., priority 2010, dated 2016)
# Tests used:
# [1] = Metabolites in serum and urine of dosed rats (LC-MS); type: in vivo; details: rat serum or urine, 10 mg/kg po
# Procedure: Oxadiazoles disclosed herein as well as other oxadiazoles were investigated to determine the formation of metabolites. Animals were dosed, blood taken, serum prepared, serum proteins precipitated and ultrafiltrates prepared as described in Example 6. In separate experiments, urine was collected from rats for 16-24 hours after dosing, using standard metabolic cages. The urine container and collected urine were maintained at 4° C. Urine was lyophilized, taken back into water. The uftrafiltrate was prepared by adding formic acid to a final concentration of 1% to the urine samples, then filtered through a 0.2 um nylon membrane. The ultrafiltrate was subjected to LC-MS analysis. Instead of measuring the product ions in Q3, manual Q1 scans of the liquid chromatograph were undertaken, seeking parent ions of potential metabolites of the compounds. The criteria for identifying metabolites were as follows: (1) the ion should be present in the sera or urines of dosed rats, but not in sera or urines from non-dosed rats (2) the ion should be identifiable as a metabolic derivative of the dosed compound (e.g. loss of a functional chemical moiety, addition of a hydroxyl group or a glucuronic acid moiety, etc). Metabolites were determined not to be present if no compound meeting the above criteria could be detected in serum or urine.
# CD-I mice = assay: Apomorphine induced climbing model of psychosis; type: in vivo; details: mice, sc, apomorphine 2 mg/kg (FIG. 1)
# Procedure: As described in Costall et. al. European Journal of Pharmacology 1978, 50, 39. individual CD-I mice, 1-2 months old, were placed in a cylindrical wire mesh cage (13.2 cm high×13.2 cm diameter) constructed of steel wire 1 mm thick spaced at 1.2 cm^2. Cylinders were placed in a standard OptiMICE mouse cage (29×32×9×29 cm and 14 cm high) with adequate wood chip bedding provided. Observations of climbing (defined as 3 or more paws of the ground) were carried out every 5 minutes at a duration of 1 minute for […]. Animals were injected subcutaneously under isoflurane anesthesia with test compounds, reference compounds, which included clozapine, haloperidol, olanzapine and xanomeline, or PBS as a control. This was followed 5 minutes later by 2 mg/kg apomorphine hydrochloride. All drugs were dissolved in PBS or a mixture of (by volume) 96% PBS and 4% hydroxypropyl-beta-cyclodextrin, and dosed at a rate of 5 ml per kilogram of body weight. Following injections, animals were replaced in the mesh cages and observed for climbing (defined as 3 or more paws off the ground) every 5 minutes for 1 minute for 60 minutes after dosing.
# [2] = system: healthy male volunteer human subjects; assay: Monitoring of cholinergic side effects in healthy volunteers; type: in vivo; details: 6 subjects
# Procedure: A single 5 mg capsule or 5×0.2 mg capsules (1 mg total dose) were administered orally to healthy male volunteer human subjects with 125 ml of water. Six such subjects receiving the 5 mg dose, and a different 6 subjects received the 1 mg dose.
# Subjects were monitored, among other things, for typical signs of muscarinic cholinergic action, such as increased salivation, lachrimation and diaphoresis.
# rat M1 receptors = biological target: T1, rat M1 receptors (Rattus norvegicus, UniProt P08482); assay: PI turnover (inositol phosphate production) in M1-CHO cells; type: cell-based; details: mean Smax relative to carbachol (100.0); CHO cells expressing rat M1
# T1 construct: host or cells: CHO (M1-CHO)
# T1 sequence (P08482 1-460): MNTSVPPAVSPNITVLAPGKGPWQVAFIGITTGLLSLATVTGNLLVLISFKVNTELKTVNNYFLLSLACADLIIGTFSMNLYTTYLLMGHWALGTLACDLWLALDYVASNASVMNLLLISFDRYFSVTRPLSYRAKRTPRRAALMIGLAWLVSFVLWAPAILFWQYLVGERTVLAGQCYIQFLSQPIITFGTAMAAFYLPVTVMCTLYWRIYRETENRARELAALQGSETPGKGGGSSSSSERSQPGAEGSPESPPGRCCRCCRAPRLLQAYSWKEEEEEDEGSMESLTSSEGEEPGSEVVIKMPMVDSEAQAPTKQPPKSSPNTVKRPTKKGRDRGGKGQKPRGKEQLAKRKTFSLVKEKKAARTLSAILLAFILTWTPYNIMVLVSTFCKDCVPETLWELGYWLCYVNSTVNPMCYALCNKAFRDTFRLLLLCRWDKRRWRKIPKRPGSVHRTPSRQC
# Procedure: The medium was changed to 70 μL/well of inositol-free DMEM containing 2 mM glutamine, 10% FBS and 10 μCi/ml of [3H]-inositol (PE:cat # NET114A250UC), incubated overnight as above, then 100 μL of a solution of the test compound in HBSS containing 10 mM LiCl and 20 mM HEPES, pH 7.4 was added, incubation was continued for 60 min under the above conditions, and the test was stopped by removing the test compound and replacing with 100 μL of 50 mM formic acid in water at 4° C. […] The compounds in Table 1 are all dihydropyrimidine-oxadiazoles which vary only at the oxadiazole side chain.
# [3] = system: hippocampal inositol phosphate; assay: In vivo tissue inositol phosphate signaling pathway activation, hippocampus; set-up: species or system Long Evans Hooded rats; details: rats, 30 mg/kg sc (FIG. 10B)
smiles,measurement,setting,value
"CCc1noc(C2CN=CNC2)n1 (stereo not drawn) [MCD-386, 3-ethyl-5-(1,4,5,6-tetrahydropyrimidin-5-yl)-1,2,4-oxadiazole]",Presence of metabolites (10 mg/kg po),[1],Yes
same,activity in the apomorphine induced climbing model,CD-I mice,inactive
same,observable cholinergic side effects,[2]; 1 mg total oral dose cohort,none of the subjects in the 1 mg total dose cohort experienced any observable cholinergic side effects
same,observable cholinergic side effects,[2]; 5 mg oral dose cohort,four subjects showed signs of muscarinic cholinergic activity
same,M1/CHO PI turnover Relative Mean Smax,rat M1 receptors,70.0
same,increase in the concentration of IP in the hippocampus,[3],71%
